Experimental findings from patent US20080015214A1 (priority 2005, published 2008) are described below.

Broadly, the IC50 is the concentration that gives 50% inhibition. A high value points to weaker potency in that assay.

What all share (experiment): biochemical
Holding throughout (type): binding

For assay [1], the target named is human nociceptin receptor (ORL-1) (Homo sapiens, UniProt P41146).
For a further assay, the target named is mu (μ) opioid receptor (Homo sapiens, UniProt P35372).
The target of assay [2] is kappa (κ) opioid receptor (Homo sapiens, UniProt P41145). The conditions noted are these: 2C2 cell line membrane, U69593-H3 ligand.
Sequence of kappa (κ) opioid receptor (P41145 whole entry): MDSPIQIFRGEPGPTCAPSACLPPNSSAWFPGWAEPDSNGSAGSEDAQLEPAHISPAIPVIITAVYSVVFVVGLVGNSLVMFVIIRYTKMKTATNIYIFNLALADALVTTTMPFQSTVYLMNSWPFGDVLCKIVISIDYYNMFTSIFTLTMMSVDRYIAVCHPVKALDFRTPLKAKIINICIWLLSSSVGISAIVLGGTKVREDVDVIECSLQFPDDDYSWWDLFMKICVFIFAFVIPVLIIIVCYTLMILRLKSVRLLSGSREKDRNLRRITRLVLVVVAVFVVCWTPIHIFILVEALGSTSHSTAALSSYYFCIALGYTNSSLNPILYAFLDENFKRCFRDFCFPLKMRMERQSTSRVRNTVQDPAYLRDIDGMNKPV

Sequence of human nociceptin receptor (ORL-1) (P41146 whole entry): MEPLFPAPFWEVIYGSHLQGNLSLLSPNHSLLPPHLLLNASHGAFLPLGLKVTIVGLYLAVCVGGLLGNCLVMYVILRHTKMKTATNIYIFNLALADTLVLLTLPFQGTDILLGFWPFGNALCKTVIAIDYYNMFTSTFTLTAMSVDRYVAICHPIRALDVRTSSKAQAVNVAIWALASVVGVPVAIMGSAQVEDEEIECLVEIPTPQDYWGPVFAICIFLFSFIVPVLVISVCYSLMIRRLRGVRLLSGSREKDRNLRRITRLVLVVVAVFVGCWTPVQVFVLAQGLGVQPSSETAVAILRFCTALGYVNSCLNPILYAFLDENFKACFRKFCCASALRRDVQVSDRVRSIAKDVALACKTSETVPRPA
Sequence of mu (μ) opioid receptor (P35372 whole entry): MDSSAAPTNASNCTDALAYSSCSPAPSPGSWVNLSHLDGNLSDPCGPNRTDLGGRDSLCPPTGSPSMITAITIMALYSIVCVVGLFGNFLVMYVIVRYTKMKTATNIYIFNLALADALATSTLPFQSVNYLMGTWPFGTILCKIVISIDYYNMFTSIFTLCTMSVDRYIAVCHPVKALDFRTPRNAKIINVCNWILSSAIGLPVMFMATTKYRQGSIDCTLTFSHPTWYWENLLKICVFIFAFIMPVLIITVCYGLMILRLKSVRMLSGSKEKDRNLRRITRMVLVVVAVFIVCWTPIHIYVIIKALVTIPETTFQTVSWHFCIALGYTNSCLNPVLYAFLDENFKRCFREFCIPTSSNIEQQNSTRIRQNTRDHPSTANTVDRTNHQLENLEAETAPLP

Regarding `c1ccc2c(CN3CCC(c4c[nH]c5ncccc45)CC3)cccc2c1` [Cpd 33, 3-(1-naphthalen-1-ylmethyl-piperidin-4-yl)-1H-pyrrolo[2,3-b]pyridine], the values for the concentration for half-maximal inhibition (IC50) (in assay [1]; on mu (μ) opioid receptor) were 821 nM and 345 nM, respectively. With `c1cnc2[nH]cc(C3CCN(CC4CCCCC4)CC3)c2c1` [Cpd 52, 3-(1-cyclohexylmethyl-piperidin-4-yl)-1H-pyrrolo [2,3-b]pyridine], in assay [1], it took 3500 nM to reach half-maximal inhibition (IC50). In the case of `OC1CN(C2Cc3cccc4cccc2c34)CCC1c1c[nH]c2ncccc12` (mixture of isomers) [Cpd 40, 1-acenaphthen-1-yl-4-(1 H-pyrrolo[2,3-b]pyridin-3-yl)-piperidin-3-ol], it took 4300 nM to reach half-maximal inhibition in assay [2] (IC50). The molecule `c1cc2c3c(cccc3c1)C(N1CCC(c3cn(C4Cc5cccc6cccc4c56)c4ncccc34)CC1)C2` (stereo not drawn) [Cpd 35, 1-acenaphthen-1-yl-3-(1-acenaphthen-1-yl-piperidin-4-yl)-1H-pyrrolo[2,3-b]pyridine] displayed an IC50 in assay [2] of 840 nM.

On to `c1ccc(Oc2ccc(CN3CCC(c4c[nH]c5ncccc45)CC3)cc2)cc1` [Cpd 55, 3-[1-(4-phenoxy-benzyl)-piperidin-4-yl]-1H-pyrrolo[2,3-b]pyridine], for which the IC50 against mu (μ) opioid receptor was determined as 339 nM.
